Tests used:
Assay type in all cases: cell-based
[1] = tested on: human alveolar basal epithelial adenocarcinoma cells, A549; assay: Multipolarity-inducing activity assay 3 (A549 cells synchronized in G2 phase (or M phase)); details: 10 μM peptide, number of M-phase cells 100
Description: Some of the sample peptides obtained in Example 1 were tested for multipolarity-inducing activity against target cultured tumor cells. As the tumor cells tested, cells forming a […] (human alveolar basal epithelial adenocarcinoma cells, A549) were used. The cell line was cultured in the same manner as Example 2 described above. The resulting cultured tumor cells were synchronized in the G2 phase (or M phase) in the same manner as Example 3 described above. Similarly to Examples 2 and 3 described above (the number of M-phase cells was 100 herein), the presence of multipolarity was observed by immunofluorescence under fluorescence microscope.

HeLa cell line (HeLa S3) [2] = assay: Multipolarity-inducing activity assay 1 (cells synchronized in G1 phase by double thymidine block); details: 10 μM peptide, 6 hours incubation; for Multipolar level (%): % multipolar cells relative to M-phase cells; for Number of multipolar cells: count among the M-phase cells observed
Description: Some of the sample peptides obtained in Example 1 were tested for multipolarity-inducing activity against target cultured tumor cells. Details of the assay are as described below.
As the tumor cells tested, a HeLa cell line (HeLa S3) was used. The cell line was cultured beforehand in a DMEM medium (i.e. Dulbecco MEM medium (DMEM medium, a Gibco product) containing 10% fetal bovine serum (FBS, a Gibco product), 2 mM of L-glutamine, 50 unit/mL of penicillin, and 50 μg/mL of streptomycin), and seeded at about 3×10^4 cells per well in an 8-well slide glass. Thymidine was added to the culture medium to a final concentration of 2.5 mM. Incubation was carried out at 37° C. under 5% CO2 for 16 hours. The culture medium was exchanged to remove thymidine and incubation was carried out for 8 more hours. Subsequently, thymidine was added again to a final concentration of 2.5 mM and incubation was carried out for 16 hours.
By such double thymidine block, the cells being cultured were synchronized in the G1 phase of the cell cycle. After such synchronization treatment, the culture medium was exchanged to remove thymidine and incubation was carried out for 2 more hours. Subsequently, one of the sample peptides was added to each well. In this example, one of Samples 1, 4, 5, 7, 9 and 11 was added to a peptide concentration in the well of 10 μM.
After a sample peptide was added as described above, the 8-well slid glass was incubated under the aforementioned conditions for 6 hours.
After 6 hours of incubation, the presence of multipolarity was observed by immunofluorescence under fluorescence microscope. In particular, after 6 hours of incubation following the addition of a sample peptide, the cultured cells were subjected to nuclear staining with DAPI (4′,6-diamidino-2-phenylindole), and using α-tubulin as a marker for spindles, the cells were tested for the presence of tubulin (i.e. the presence of spindles) by immunofluorescence with an anti-tubulin antibody (primary antibody) to identify the tubulin and a fluorescent dye (ALEXA FLUOR(registered trademark) 555)-labeled secondary antibody to identify the primary antibody. In addition, using centrin-2 as a marker for centrosomes (centrioles), the cells were tested for the presence of centrin-2 (i.e. the presence of centrosomes) by immunofluorescence with an anti-centrin-2 antibody (primary antibody) to identify the centrin-2 and a fluorescent dye-labeled secondary antibody to identify the primary antibody.

HeLa cell line (HeLa S3) [3] = assay: Multipolarity-inducing activity assay 2 (cells synchronized in G2 phase (or M phase) by nocodazole); details: 10 μM peptide, 4 hours with peptide + 2 hours without; for Multipolar level (%): % multipolar cells relative to M-phase cells; for Number of multipolar cells: count among 60 M-phase cells
Description: The same sample peptides as those used in Example 2 above were used and tested for multipolarity-inducing activity against cultured tumor cells synchronized in the G2 phase (or M phase). Details of the assay are as described below.
As the tumor cells tested, a HeLa cell line (HeLa S3) was used. The cell line was cultured under the same conditions as Example 2 and seeded at about 3×10^4 cells per well in an 8-well slide glass. Thymidine was added to the culture medium to a final concentration of 2.5 mM. Incubation was carried out at 37° C. under 5% CO2 for 18 hours. The culture medium was exchanged to remove thymidine and incubation was carried out for 6 more hours. Subsequently, nocodazole was added to a final concentration of 0.1 μg/mL and incubation was carried out for 16 hours. By such addition of nocodazole, the cells being cultured were synchronized in the G2 phase (M phase) of the cell cycle.
After the 16 hours of incubation, without exchanging the culture medium (i.e. with nocodazole being contained), one of the sample peptides was added to each well to a peptide concentration in the well of 10 μM and incubation was carried out for 4 hours. Subsequently, the culture medium was exchanged and incubation was continued for 2 more hours without nocodazole or the sample peptide.
After the 2 hours of incubation, in the same manner as Example 2, the presence of multipolarity was observed by immunofluorescence under fluorescence microscope.

Sequence	Multipolar level (%) [1] [%]	Multipolar level (%) (HeLa cell line (HeLa S3) [2])	Number of multipolar cells (HeLa cell line (HeLa S3) [2])	Multipolar level (%) (HeLa cell line (HeLa S3) [3])	Number of multipolar cells (HeLa cell line (HeLa S3) [3])
EFEYFHPATFRL [Sample 8]	26	–	–	–	–
GAVTYSRISGQY [Sample 10]	29	–	–	–	–
GPHHYWYHLRLP [Sample 4]	28	13.6	14	48.3	29
GPHLGMNQRRRP [Sample 9]	27	10.4	11	55.0	33
NMTTYPMHNNTV [Sample 6]	32	–	–	–	–
NMTTYPMHNNTVKKRTLRKNDRKKR [Sample 16]	33	–	–	–	–
QSPVNHHYHYHI [Sample 5]	34	10.8	12	41.7	25
SLLPHSNHAKHY [Sample 7]	28	13.0	13	43.3	26
SVSVGMKPSPRP [Sample 1]	30	11.5	12	40.0	24
SVSVGMKPSPRPKKRTLRKNDRKKR [Sample 11]	32	12.7	13	41.7	25
TPSLPPTMFRLT [Sample 3]	32	–	–	–	–
